Experimental data from patent publication US6649193B1, “Prophylactic therapeutic and industrial antioxidant compositions enhanced with stabilized atomic hydrogen/free electrons and methods to prepare and use such compositions” (Henceforth Hibernia Inc., priority 1999, dated 2003).

Assay: Standardized in-vitro tests of free radical / reactive species scavenging
Format: biochemical
Settings: cage-like agent added to the solution before electrolysis
Description: Electrochemical Method to Produce and Encage Atomic Hydrogen: Electrolysis is a very efficient method of producing atomic hydrogen free electrons. In the past, though, it was not possible to separate oxidizing products produced at the anode and reducing products produced at the cathode. Recently, Japanese scientists used a semipermeable membrane to separate the cathode and anode areas, while not perturbing the flow of electrons delivered to the media. Such devices are, for instance, described in Y. Shiramizu et al., J. Electrochem. Soc., Vol. 143, 1632 (1996), the content of which is incorporated by reference in its entirety. In short, such devices consist of a chamber (usually made of noncorrosive material such as plastic) which is divided in two compartments with a water-tight semipermeable Nafion membrane (Dupont corporation). In each compartment, there is an electrode connected to a DC current source. […] Several parameters can be measured to ensure the efficiency of electrolysis. […] The efficiency of reduction of vitamin B12 can be tested by measuring UV/VISIBLE spectra and recording the absorbance at 387 nm, which is proportional to the amount of reduced vitamin B12, see G. Chithambarathanu Pillai and E. S. Gould, Inorganic Chemistry, Vol. 25, 3353 (1986), the content of which is incorporated by reference in its entirety. […]

cyanocobalamin [vitamin B12]
scavenging ability of the electrolyzed solution: enhanced in a dose-dependent fashion
